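Briefly, cells in 96-well plates were exposed to five compound concentrations for 48 h, and endpoints were estimated by linear interpolation. Here, GI50 denotes the concentration required for 50% inhibition of growth.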 Activity calls are given as the source filed them. Cut-off read from the data, not from the text of the source: active = GI50 up to about 1.1 µM and inactive = higher.

Some test systems named below: SK-MEL-5; OVCAR-4; ACHN; HCT-116; CAKI-1; OVCAR-8; NCI-H226; SF-268; M14; NCI-H522; HT-29; NCI-H460; SNB-75; MDA-MB-231; OVCAR-5; SF-295; SF-539; TK-10; HL-60; NCI/ADR-RES.
Common to all, as to assay: NCI-60 cell line screen, 48 h

As for `CC1=C(Br)C(=O)c2c(O)ccc(O)c2C1=O`, the GI50 with SK-MEL-5 is 0.435 µM (active); in the assay with OVCAR-4, 0.857 µM (active); in the assay with ACHN, 0.869 µM (active); in the assay on HCT-116, 0.303 µM (active); with CAKI-1 it was 0.282 µM (active); with OVCAR-8, 0.481 µM (active). For the same compound, the GI50 in the assay with NCI-H226 was 2.67 µM (inactive); with SF-268, 1.99 µM (inactive); with M14, 0.431 µM (active); in the assay on NCI-H522 it was 0.153 µM (active); in the assay on HT-29, 0.336 µM (active); in the assay on NCI-H460 it was 1.26 µM (inactive). Also, the GI50 with SNB-75 was 1.51 µM (inactive); in the assay on MDA-MB-231, 1.26 µM (inactive); in the assay with OVCAR-5 it was 1.66 µM (inactive); with SF-295, 1.67 µM (inactive); in the assay with SF-539 it was 0.646 µM (active); in the assay on TK-10, 1.26 µM (inactive). Besides, the GI50 in the assay with HL-60 was 0.0306 µM (active); in the assay on NCI/ADR-RES it was 0.555 µM (active).

For the compound `Nc1nc(N)c2ncn(Cc3ccccc3CO)c2n1`, the GI50 in the assay on SK-MEL-5, with OVCAR-4, with ACHN, in the assay on HCT-116, with CAKI-1 and in the assay with OVCAR-8 was > 100 µM (inactive) each time. The GI50 in the assay with NCI-H226, with SF-268, in the assay with M14, in the assay with NCI-H522, in the assay on HT-29 and with NCI-H460 was > 100 µM (inactive) throughout. Further, the GI50 with SNB-75, in the assay on MDA-MB-231, in the assay with OVCAR-5, with SF-295, in the assay on SF-539 and in the assay with TK-10 was > 100 µM (inactive) each time. In addition, the GI50 with HL-60 and in the assay on NCI/ADR-RES was > 100 µM (inactive) throughout.

In the case of `COP(=O)(Cc1ccccc1)Cc1ccccc1`, the GI50 in the assay with SK-MEL-5, with OVCAR-4, in the assay with ACHN, in the assay on HCT-116, in the assay with CAKI-1 and with OVCAR-8 was > 100 µM (inactive) throughout. Also, the GI50 with NCI-H226, in the assay with SF-268, in the assay on M14, in the assay with NCI-H522, in the assay with HT-29 and with NCI-H460 was > 100 µM (inactive) throughout. Moreover, the GI50 in the assay with SNB-75, with MDA-MB-231, with OVCAR-5, in the assay on SF-295, in the assay on SF-539 and in the assay with TK-10 was > 100 µM (inactive) throughout. Moreover, the GI50 in the assay with HL-60 and in the assay with NCI/ADR-RES was > 100 µM (inactive) each time.

As to `O=C1CC2(CCNCC2)C(=O)N1N1CCCCC1`, the GI50 in the assay on SK-MEL-5, with OVCAR-4, with ACHN, in the assay with HCT-116, in the assay with CAKI-1 and with OVCAR-8 was > 100 µM (inactive) throughout. Besides, the GI50 in the assay on NCI-H226, with SF-268, in the assay with M14, in the assay with NCI-H522, in the assay on HT-29 and with NCI-H460 was > 100 µM (inactive) each time. The GI50 in the assay with SNB-75, with MDA-MB-231, with OVCAR-5, with SF-295, with SF-539 and in the assay on TK-10 was > 100 µM (inactive) throughout. Besides, the GI50 in the assay with HL-60 and in the assay on NCI/ADR-RES was > 100 µM (inactive) in each case.

For the compound `O=C1CCCCc2cccc(O)c21`, the GI50 with SK-MEL-5, in the assay with OVCAR-4, in the assay with ACHN, with HCT-116, in the assay with CAKI-1 and with OVCAR-8 was > 100 µM (inactive) each time. The GI50 with NCI-H226, with SF-268, in the assay with M14, in the assay with NCI-H522, with HT-29 and in the assay with NCI-H460 was > 100 µM (inactive) throughout. Moreover, the GI50 with SNB-75, with MDA-MB-231, with OVCAR-5, in the assay with SF-295, in the assay with SF-539 and with TK-10 was > 100 µM (inactive) each time. Further, the GI50 in the assay with HL-60 and in the assay on NCI/ADR-RES was > 100 µM (inactive) in each case.

`CC(C)(Br)C(=O)/C=C/c1ccccc1`: the GI50 in the assay with SK-MEL-5 was 11.6 µM (inactive); in the assay on OVCAR-4, 2.3 µM (inactive); with ACHN it was 2.55 µM (inactive); in the assay with HCT-116 it was 0.625 µM (active); in the assay with CAKI-1 it was 6.12 µM (inactive); in the assay with OVCAR-8 it was 2.13 µM (inactive). For the same compound, the GI50 was 5 µM (inactive) with NCI-H226; 10.6 µM (inactive) in the assay with SF-268; 1.56 µM (inactive) in the assay on M14; 0.136 µM (active) with NCI-H522; 4.23 µM (inactive) with HT-29; 16.3 µM (inactive) in the assay on NCI-H460. Further, the GI50 in the assay on SNB-75 was 16.1 µM (inactive); with MDA-MB-231, 8.79 µM (inactive); in the assay with OVCAR-5, 6.56 µM (inactive); with SF-295 it was 16.8 µM (inactive); in the assay with SF-539 it was 8.13 µM (inactive); in the assay on TK-10, 10.6 µM (inactive). Also, the values for the GI50 in the assay on HL-60 and with NCI/ADR-RES were 3.91 µM (inactive) and 17.6 µM (inactive), respectively.

In the case of `O=c1oc2ccc(Cl)cc2cc1-c1cn2cc(Cl)ccc2n1`, the GI50 in the assay on SK-MEL-5 was > 100 µM (inactive); with OVCAR-4 it was > 100 µM (inactive); in the assay on ACHN it was > 100 µM (inactive); with HCT-116, 6.3 µM (inactive); in the assay with CAKI-1, > 22.4 µM (inactive); with OVCAR-8, > 57 µM (inactive). In addition, the GI50 is > 100 µM (inactive) with NCI-H226; > 80.9 µM (inactive) with SF-268; 4.46 µM (inactive) in the assay with M14; 0.74 µM (active) in the assay with NCI-H522; > 24.3 µM (inactive) in the assay with HT-29; 14.4 µM (inactive) in the assay with NCI-H460. The GI50 with SNB-75 was > 100 µM (inactive); in the assay on MDA-MB-231, > 70.3 µM (inactive); in the assay with OVCAR-5, > 100 µM (inactive); in the assay on SF-295, 10.1 µM (inactive); in the assay on SF-539, > 100 µM (inactive); in the assay on TK-10, > 100 µM (inactive). The figures for the GI50 in the assay on HL-60 and in the assay with NCI/ADR-RES were 3.4 µM (inactive) and 11.4 µM (inactive), respectively.

With `COc1ccc(C(SCCO)(c2ccc(OC)cc2)c2ccc(OC)cc2)cc1`, the GI50 was 12.2 µM (inactive) in the assay on SK-MEL-5; 21.6 µM (inactive) with OVCAR-4; 17.7 µM (inactive) in the assay on ACHN; 14.3 µM (inactive) in the assay with HCT-116; 20.6 µM (inactive) in the assay on CAKI-1; 14.9 µM (inactive) in the assay on OVCAR-8. Moreover, the GI50 is 13.9 µM (inactive) in the assay on NCI-H226; 17.3 µM (inactive) in the assay on SF-268; 15.9 µM (inactive) with M14; 12.4 µM (inactive) with NCI-H522; 17 µM (inactive) with HT-29; 15 µM (inactive) in the assay with NCI-H460. The GI50 was 22 µM (inactive) in the assay on SNB-75; 19.8 µM (inactive) with MDA-MB-231; 22.5 µM (inactive) in the assay on OVCAR-5; 12.4 µM (inactive) with SF-295; 14.4 µM (inactive) in the assay on SF-539; 21.8 µM (inactive) with TK-10. The figures for the GI50 with HL-60 and in the assay with NCI/ADR-RES were 21 µM (inactive) and 13.6 µM (inactive), respectively.

For the origin of these results see ChEMBL document CHEMBL1201862, “PubChem BioAssay data set” (2004).
